Measured values: ChEMBL document CHEMBL3102758, “Structure-activity relationship study of BACE1 inhibitors possessing a chelidonic or 2,6-pyridinedicarboxylic scaffold at the P(2) position” (Bioorg Med Chem Lett, 2014)

How the values were obtained:
[1] = target: T1, Beta-secretase 1 (Homo sapiens, UniProt P56817); assay: Inhibition of recombinant human BACE1 using (7-methoxycoumarin-4-yl)acetyl-SEVNL*DAEFRK(2,4-dinitrophenyl)-RR-NH2) as substrate at 2 uM by FRET assay
[2] = target: T1, Beta-secretase 1; assay: Inhibition of recombinant human BACE1 using (7-methoxycoumarin-4-yl)acetyl-SEVNL*DAEFRK(2,4-dinitrophenyl)-RR-NH2) as substrate at 0.2 uM by FRET assay
[3] = target: T1, Beta-secretase 1; assay: Inhibition of recombinant human BACE1 using (7-methoxycoumarin-4-yl)acetyl-SEVNL*DAEFRK(2,4-dinitrophenyl)-RR-NH2) as substrate by FRET assay

T1 sequence (P56817 whole entry): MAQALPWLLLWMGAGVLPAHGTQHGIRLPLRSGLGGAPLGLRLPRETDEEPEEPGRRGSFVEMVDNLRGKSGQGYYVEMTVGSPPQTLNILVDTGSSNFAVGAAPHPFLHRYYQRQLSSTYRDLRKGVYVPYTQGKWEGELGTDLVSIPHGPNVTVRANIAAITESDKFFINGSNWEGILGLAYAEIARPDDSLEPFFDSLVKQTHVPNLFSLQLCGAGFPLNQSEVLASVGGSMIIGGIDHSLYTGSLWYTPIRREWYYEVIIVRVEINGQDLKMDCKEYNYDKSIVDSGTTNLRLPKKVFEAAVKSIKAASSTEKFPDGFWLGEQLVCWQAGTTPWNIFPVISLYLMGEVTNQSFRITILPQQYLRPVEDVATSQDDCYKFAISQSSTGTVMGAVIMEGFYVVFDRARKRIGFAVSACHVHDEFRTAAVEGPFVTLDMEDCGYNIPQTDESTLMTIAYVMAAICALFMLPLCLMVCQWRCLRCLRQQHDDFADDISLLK

Structure (SMILES)	inhibition [1] [%]	inhibition [2] [%]	IC50 [3] [nM]
COc1cc(C(=O)N[C@@H](Cc2ccccc2)[C@H](O)C(=O)Nc2cccc(-c3nn[nH]n3)c2)nc(C(=O)N2COC[C@@H]2c2ccccc2)c1	91	53	151
CN(c1cc(C(=O)N[C@@H](Cc2ccccc2)[C@H](O)C(=O)Nc2cccc(-c3nn[nH]n3)c2)nc(C(=O)N2COC[C@@H]2c2ccccc2)c1)S(C)(=O)=O	75	–	–
O=C(NCc1ccccc1)c1cc(=O)cc(C(=O)N[C@@H](Cc2ccccc2)[C@H](O)C(=O)Nc2cccc(-c3nn[nH]n3)c2)o1	25	–	–
CCCN(CCC)C(=O)c1cc(=O)cc(C(=O)N[C@@H](Cc2ccccc2)[C@H](O)C(=O)Nc2cccc(-c3nnn[nH]3)c2)o1	6	–	–
CCCOc1cc(C(=O)N[C@@H](Cc2ccccc2)[C@H](O)C(=O)Nc2cccc(-c3nn[nH]n3)c2)nc(C(=O)N2COC[C@@H]2c2ccccc2)c1	64	–	–
C[C@H](NC(=O)c1cc(=O)cc(C(=O)N[C@@H](Cc2ccccc2)[C@H](O)C(=O)Nc2cccc(-c3nn[nH]n3)c2)o1)c1ccccc1	25	–	–
O=C(N[C@@H](Cc1ccccc1)[C@H](O)C(=O)Nc1cccc(-c2nn[nH]n2)c1)c1cc(=O)cc(C(=O)N(Cc2ccccc2)Cc2ccccc2)o1	29	–	–
CN(NC(=O)c1cc(=O)cc(C(=O)N[C@@H](Cc2ccccc2)[C@H](O)C(=O)Nc2cccc(-c3nn[nH]n3)c2)o1)c1ccccc1	21	–	–
C[C@@H](NC(=O)c1cc(=O)cc(C(=O)N[C@@H](Cc2ccccc2)[C@H](O)C(=O)Nc2cccc(-c3nn[nH]n3)c2)o1)c1ccc([N+](=O)[O-])cc1	51	–	–
CSc1cc(C(=O)N[C@@H](Cc2ccccc2)[C@H](O)C(=O)Nc2cccc(-c3nn[nH]n3)c2)nc(C(=O)N2COC[C@@H]2c2ccccc2)c1	95	66	89
Nc1cc(C(=O)N[C@@H](Cc2ccccc2)[C@H](O)C(=O)Nc2cccc(-c3nn[nH]n3)c2)nc(C(=O)N2COC[C@@H]2c2ccccc2)c1	78	53	–
CCCN(CCC)C(=O)c1cc(=O)cc(C(=O)N[C@@H](Cc2ccccc2)[C@@H](O)C(=O)Nc2cccc(-c3noc(=O)[nH]3)c2)o1	23	–	–
CCOc1cc(C(=O)N[C@@H](Cc2ccccc2)[C@H](O)C(=O)Nc2cccc(-c3nn[nH]n3)c2)nc(C(=O)N2COC[C@@H]2c2ccccc2)c1	79	–	–
CC(C)Sc1cc(C(=O)N[C@@H](Cc2ccccc2)[C@H](O)C(=O)Nc2cccc(-c3nn[nH]n3)c2)nc(C(=O)N2COC[C@@H]2c2ccccc2)c1	72	–	–
C[C@@H](NC(=O)c1cc(=O)cc(C(=O)N[C@@H](Cc2ccccc2)[C@H](O)C(=O)Nc2cccc(-c3nn[nH]n3)c2)o1)c1ccc(Cl)cc1	61	–	–
C[C@@H](NC(=O)c1cc(=O)cc(C(=O)N[C@@H](Cc2ccccc2)[C@H](O)C(=O)Nc2cccc(-c3nn[nH]n3)c2)o1)c1ccc(F)cc1	76	–	–
COc1cc(C(=O)N[C@@H](Cc2ccccc2)[C@H](O)C(=O)Nc2cccc(-c3nn[nH]n3)c2)nc(C(=O)N[C@H](C)c2ccccc2)c1	73	–	–
CCOc1cc(C(=O)N[C@@H](Cc2ccccc2)[C@H](O)C(=O)Nc2cccc(-c3nn[nH]n3)c2)nc(C(=O)N[C@H](C)c2ccccc2)c1	46	–	–
[N-]=[N+]=Nc1cc(C(=O)N[C@@H](Cc2ccccc2)[C@H](O)C(=O)Nc2cccc(-c3nn[nH]n3)c2)nc(C(=O)N2COC[C@@H]2c2ccccc2)c1	95	68	79
COc1cccc([C@@H](C)NC(=O)c2cc(=O)cc(C(=O)N[C@@H](Cc3ccccc3)[C@H](O)C(=O)Nc3cccc(-c4nn[nH]n4)c3)o2)c1	48	–	–
C[C@@H](NC(=O)c1cc(=O)cc(C(=O)N[C@@H](Cc2ccccc2)[C@H](O)C(=O)Nc2cccc(-c3nn[nH]n3)c2)o1)C1CCCCC1	26	–	–

The remaining lines, values ahead:

inhibition [1] [%]	inhibition [2] [%]	IC50 [3] [nM]	Structure (SMILES)
42	–	–	CCOc1cc(C(=O)N[C@@H](Cc2ccccc2)[C@H](O)C(=O)Nc2cccc(-c3nn[nH]n3)c2)nc(C(=O)NC(C)(C)c2ccccc2)c1
74	–	–	COc1cc(C(=O)N[C@@H](Cc2ccccc2)[C@H](O)C(=O)Nc2cccc(-c3nn[nH]n3)c2)nc(C(=O)NC(C)(C)c2ccccc2)c1
11	–	–	O=C(N[C@@H](CO)c1ccccc1)c1cc(=O)cc(C(=O)N[C@@H](Cc2ccccc2)[C@H](O)C(=O)Nc2cccc(-c3nn[nH]n3)c2)o1
60	–	–	CCCN(CCC)C(=O)c1cc(=O)cc(C(=O)N[C@@H](Cc2ccccc2)[C@@H](O)C(=O)Nc2cccc(-c3nnn[nH]3)c2)o1
85	–	–	CSc1cc(C(=O)N[C@@H](Cc2ccccc2)[C@H](O)C(=O)Nc2cccc(-c3nn[nH]n3)c2)nc(C(=O)NC(C)(C)c2ccccc2)c1
67	–	–	CN(Cc1ccccc1)C(=O)c1cc(=O)cc(C(=O)N[C@@H](Cc2ccccc2)[C@H](O)C(=O)Nc2cccc(-c3nn[nH]n3)c2)o1
62	–	–	C[C@@H](NC(=O)c1cc(=O)cc(C(=O)N[C@@H](Cc2ccccc2)[C@H](O)C(=O)Nc2cccc(-c3nn[nH]n3)c2)o1)c1cccc(F)c1
29	–	–	C[C@@H](NC(=O)c1cc(OS(=O)(=O)Cc2ccccc2)cc(C(=O)N[C@@H](Cc2ccccc2)[C@H](O)C(=O)Nc2cccc(-c3nn[nH]n3)c2)n1)c1ccccc1
32	–	–	CC[C@@H](NC(=O)c1cc(=O)cc(C(=O)N[C@@H](Cc2ccccc2)[C@H](O)C(=O)Nc2cccc(-c3nn[nH]n3)c2)o1)c1ccccc1
54	–	–	Cc1ccc([C@@H](C)NC(=O)c2cc(=O)cc(C(=O)N[C@@H](Cc3ccccc3)[C@H](O)C(=O)Nc3cccc(-c4nn[nH]n4)c3)o2)cc1
70	–	–	COc1ccc([C@@H](C)NC(=O)c2cc(=O)cc(C(=O)N[C@@H](Cc3ccccc3)[C@H](O)C(=O)Nc3cccc(-c4nn[nH]n4)c3)o2)cc1
10	–	–	CCCN(CCC)C(=O)c1cc(=O)cc(C(=O)N[C@@H](Cc2ccccc2)[C@@H](O)C(=O)Nc2cccc(C(=O)O)c2)o1
82	–	–	CSc1cc(C(=O)N[C@@H](Cc2ccccc2)[C@H](O)C(=O)Nc2cccc(-c3nn[nH]n3)c2)nc(C(=O)N[C@H](C)c2ccccc2)c1
95	68	–	Cc1cc(C(=O)N[C@@H](Cc2ccccc2)[C@H](O)C(=O)Nc2cccc(-c3nn[nH]n3)c2)nc(C(=O)N2COC[C@@H]2c2ccccc2)c1
13	–	–	O=C(NC(c1ccccc1)c1ccccc1)c1cc(=O)cc(C(=O)N[C@@H](Cc2ccccc2)[C@H](O)C(=O)Nc2cccc(-c3nn[nH]n3)c2)o1
